The test system of data set [1] is blood platelet aggregation. Description: inhibitory activity on adenosine diphosphate-induced blood platelet aggregation in platelet-rich plasma of humans. It is filed as cell-based, human. Conditions: for Inhibitory Activity on Blood Platelet Aggregation Human, relative to PGE1 taken as 1: relative to PGE1 = 1; for inhibitory activity on adenosine diphosphate-induced blood platelet aggregation, times as potent as PGE1: human platelet-rich plasma, vs PGE1.

A further data set relates to dogs. Description: hypotensive activity, intravenous administration to allobarbital-anaesthetised dogs. It is filed as in vivo, dog. Conditions: for Hypotensive Activity Dog (i.v.), relative to PGE1 taken as 1: relative to PGE1 = 1; for useful activities (hypotensive, blood platelet aggregation inhibitory, vasodilator): in words, summary of the Table; for hypotensive activity, times as potent as PGE1: intravenous, allobarbital-anaesthetised dogs, vs PGE1.

For a further data set, the system named is mice. As to conditions: mouse, in vivo; for Diarrhoea-inducing Activity Mice (p.o.), relative to PGE1 taken as 1 / diarrhoea-inducing activity compared with PGE1: po.
For data set [2], the system named is blood platelet aggregation. Nature of the data set: inhibitory activity on adenosine diphosphate-induced blood platelet aggregation in platelet-rich plasma of rats. It counts as cell-based, rat. Conditions: for Inhibitory Activity on Blood Platelet Aggregation Rat, relative to PGE1 taken as 1: relative to PGE1 = 1; for inhibitory activity on adenosine diphosphate-induced blood platelet aggregation, times as potent as PGE1: rat platelet-rich plasma, vs PGE1.

A further data set deals with isolated rabbit hearts. Nature of the data set: coronary vasodilator activity on isolated rabbit hearts. As to conditions: for Vasodilator Activity Rabbit, relative to PGE1 taken as 1: relative to PGE1 = 1; for coronary vasodilator activity, times as potent as PGE1: isolated rabbit hearts, vs PGE1.
The subject of data set [3] is spontaneously hypertensive rats. Nature of the data set: hypotensive activity, oral administration to conscious spontaneously hypertensive rats. As to conditions: for Hypotensive Activity Rat (p.o.), relative to PGE1 taken as 1: relative to PGE1 = 1; for hypotensive activity, times as potent as PGE1: oral, conscious spontaneously hypertensive rats, vs PGE1. It counts as in vivo, rat.
Source text: In the Table, all the activities are indicated relative to the activity of PGE1, taken as 1.

Data set [4] is described as follows: acute toxicity tests, intravenous or oral administration to mice. As to conditions: mouse, in vivo. The protocol:
Acute toxicity tests on the compounds of the present invention were conducted by administering them intravenously or orally to mice.

As for `CCCC[C@@H](C)C[C@H](O)/C=C/[C@H]1[C@H](O)CC(=O)[C@@H]1CCCC/C=C/C(=O)O` [G, 9-oxo-11α,15α-dihydroxy-17R,20-dimethylprosta-trans-2,trans-13-dienoic acid], in data set [1], the “Inhibitory Activity on Blood Platelet Aggregation Human, relative to PGE1 taken as 1” value is given as 48.1 and the “inhibitory activity on adenosine diphosphate-induced blood platelet aggregation, times as potent as PGE1” value (shortened to “inhibitory activity … as PGE1”) was 48.1 times. In the data set with dogs, the “Hypotensive Activity Dog (i.v.), relative to PGE1 taken as 1” value came to 3.5; the “useful activities (hypotensive, blood platelet aggregation inhibitory, vasodilator)” value is recorded as “extremely strong”; the “hypotensive activity, times as potent as PGE1” value (“hypotensive activity, times” for short) was determined as 3.5 times. Also, in the data set on mice, the “diarrhoea-inducing (side-effect) activity compared with the known compounds” value is given as “weaker”; the “Diarrhoea-inducing Activity Mice (p.o.), relative to PGE1 taken as 1” value is reported as less than 1; the “diarrhoea-inducing activity compared with PGE1” value is given as “lower diarrhoea-inducing activity than PGE1”. In addition, in data set [2], the “Inhibitory Activity on Blood Platelet Aggregation Rat, relative to PGE1 taken as 1” value was determined as 70.5 and the “inhibitory activity … as PGE1” value is recorded as 70.5 times. Moreover, in the data set on isolated rabbit hearts, the “Vasodilator Activity Rabbit, relative to PGE1 taken as 1” value turned out to be 14.0 and the “coronary vasodilator activity, times as potent as PGE1” value turned out to be 14.0 times.

Regarding `CCCC[C@H](C)C[C@H](O)/C=C/[C@H]1[C@H](O)CC(=O)[C@@H]1CCCC/C=C/C(=O)O` [F, 9-oxo-11α,15α-dihydroxy-17S,20-dimethylprosta-trans-2,trans-13-dienoic acid], in data set [3], the “Hypotensive Activity Rat (p.o.), relative to PGE1 taken as 1” value came to 100 and the “hypotensive activity, times” value came out at 100 times. Also, in data set [1], the “Inhibitory Activity on Blood Platelet Aggregation Human, relative to PGE1 taken as 1” value worked out at 38.5 and the “inhibitory activity … as PGE1” value is on record as 38.5 times. In the data set on dogs, the “Hypotensive Activity Dog (i.v.), relative to PGE1 taken as 1” value came out at 10.0; the “useful activities (hypotensive, blood platelet aggregation inhibitory, vasodilator)” value was “extremely strong”; the “hypotensive activity, times” value came to 10 times. This compound showed an LD50 in data set [4] (intravenous administration) of approximately 12 mg/kg. The LD50 in data set [4] (oral administration) is approximately 50 mg/kg. Moreover, in the data set on mice, the “diarrhoea-inducing (side-effect) activity compared with the known compounds” value is recorded as “weaker”; the “Diarrhoea-inducing Activity Mice (p.o.), relative to PGE1 taken as 1” value is less than 1; the “diarrhoea-inducing activity compared with PGE1” value was “lower diarrhoea-inducing activity than PGE1”. Moreover, in data set [2], the “Inhibitory Activity on Blood Platelet Aggregation Rat, relative to PGE1 taken as 1” value is 81.6 and the “inhibitory activity … as PGE1” value amounted to 81.6 times. In the data set with isolated rabbit hearts, the “Vasodilator Activity Rabbit, relative to PGE1 taken as 1” value was 19.0 and the “coronary vasodilator activity, times as potent as PGE1” value was determined as 19.0 times.

On to `CCCC[C@H](C)C[C@H](O)/C=C/[C@H]1[C@H](O)CC(=O)[C@@H]1CCCC/C=C/C(=O)OC` [H, methyl 9-oxo-11α,15α-dihydroxy-17S,20-dimethylprosta-trans-2,trans-13-dienoate], for which, in data set [3], the “Hypotensive Activity Rat (p.o.), relative to PGE1 taken as 1” value is on record as 100 and the “hypotensive activity, times” value was determined as 100 times. In the data set with dogs, the “Hypotensive Activity Dog (i.v.), relative to PGE1 taken as 1” value turned out to be 5.0; the “useful activities (hypotensive, blood platelet aggregation inhibitory, vasodilator)” value is “extremely strong”; the “hypotensive activity, times” value turned out to be 5 times. Moreover, in the data set on mice, the “diarrhoea-inducing (side-effect) activity compared with the known compounds” value is on record as “weaker”; the “Diarrhoea-inducing Activity Mice (p.o.), relative to PGE1 taken as 1” value is reported as less than 1; the “diarrhoea-inducing activity compared with PGE1” value is “lower diarrhoea-inducing activity than PGE1”.

As to `CCCC(CC)C[C@H](O)/C=C/[C@H]1[C@H](O)CC(=O)[C@@H]1CCCC/C=C/C(=O)O` (stereo partly drawn) [B, 9-oxo-11α,15α-dihydroxy-17-ethylprosta-trans-2,trans-13-dienoic acid, reference compound], in data set [3], the “Hypotensive Activity Rat (p.o.), relative to PGE1 taken as 1” value stood at 10. In data set [1], the “Inhibitory Activity on Blood Platelet Aggregation Human, relative to PGE1 taken as 1” value was 22.1. Further, the “Hypotensive Activity Dog (i.v.), relative to PGE1 taken as 1” value with dogs was determined as 1.5. Besides, the “Diarrhoea-inducing Activity Mice (p.o.), relative to PGE1 taken as 1” value in the data set on mice is listed as less than 1. Also, the “Inhibitory Activity on Blood Platelet Aggregation Rat, relative to PGE1 taken as 1” value in data set [2] is listed as 14.5. Moreover, in the data set on isolated rabbit hearts, the “Vasodilator Activity Rabbit, relative to PGE1 taken as 1” value amounted to 1.0.

For the compound `CCCCCC(CC)C[C@H](O)/C=C/[C@H]1[C@H](O)CC(=O)[C@@H]1CCCC/C=C/C(=O)OC` (stereo partly drawn) [E, methyl 9-oxo-11α,15α-dihydroxy-17,20-diethylprosta-trans-2,trans-13-dienoate, reference compound], the “Hypotensive Activity Rat (p.o.), relative to PGE1 taken as 1” value in data set [3] was determined as 10. Besides, in data set [1], the “Inhibitory Activity on Blood Platelet Aggregation Human, relative to PGE1 taken as 1” value worked out at 0.14. The “Hypotensive Activity Dog (i.v.), relative to PGE1 taken as 1” value with dogs is on record as 0.88. In addition, in the data set with mice, the “Diarrhoea-inducing Activity Mice (p.o.), relative to PGE1 taken as 1” value was 1.7. Moreover, the “Inhibitory Activity on Blood Platelet Aggregation Rat, relative to PGE1 taken as 1” value in data set [2] is listed as 2.2. In the data set on isolated rabbit hearts, the “Vasodilator Activity Rabbit, relative to PGE1 taken as 1” value is given as 0.1.

As to `CCCC[C@@H](C)[C@H](O)/C=C/[C@H]1[C@H](O)CC(=O)[C@@H]1CCCC/C=C/C(=O)O` [A, 9-oxo-11α,15α-dihydroxy-16R-methylprosta-trans-2,trans-13-dienoic acid, reference compound], the “Inhibitory Activity on Blood Platelet Aggregation Human, relative to PGE1 taken as 1” value in data set [1] was determined as 1.6. In the data set with dogs, the “Hypotensive Activity Dog (i.v.), relative to PGE1 taken as 1” value amounted to 9.5. Besides, in the data set with mice, the “Diarrhoea-inducing Activity Mice (p.o.), relative to PGE1 taken as 1” value is listed as 270.6. Moreover, the “Inhibitory Activity on Blood Platelet Aggregation Rat, relative to PGE1 taken as 1” value in data set [2] turned out to be 2.84. Besides, the “Vasodilator Activity Rabbit, relative to PGE1 taken as 1” value in the data set with isolated rabbit hearts is recorded as 2-3.

As to `CC(c1ccccc1)[C@H](O)/C=C/[C@H]1[C@H](O)CC(=O)[C@@H]1CCCC/C=C/C(=O)O` (stereo partly drawn) [C, 9-oxo-11α,15α-dihydroxy-16-phenyl-18,19,20-trinorprosta-trans-2,trans-13-dienoic acid, reference compound], the “Hypotensive Activity Dog (i.v.), relative to PGE1 taken as 1” value in the data set on dogs was 39.0. For the same compound, the “Diarrhoea-inducing Activity Mice (p.o.), relative to PGE1 taken as 1” value in the data set with mice was determined as 11.9. Besides, the “Vasodilator Activity Rabbit, relative to PGE1 taken as 1” value with isolated rabbit hearts is 0.3.

Regarding `CCCCCC(CC)C[C@H](O)/C=C/[C@H]1[C@H](O)CC(=O)[C@@H]1CCCC/C=C/C(=O)O` (stereo partly drawn) [D, 9-oxo-11α,15α-dihydroxy-17,20-diethylprosta-trans-2,trans-13-dienoic acid, reference compound], in data set [3], the “Hypotensive Activity Rat (p.o.), relative to PGE1 taken as 1” value was 30-100. Further, in data set [1], the “Inhibitory Activity on Blood Platelet Aggregation Human, relative to PGE1 taken as 1” value was determined as 2.4. The “Hypotensive Activity Dog (i.v.), relative to PGE1 taken as 1” value in the data set on dogs worked out at 1.45. Besides, the “Diarrhoea-inducing Activity Mice (p.o.), relative to PGE1 taken as 1” value with mice turned out to be 3.2. Also, the “Inhibitory Activity on Blood Platelet Aggregation Rat, relative to PGE1 taken as 1” value in data set [2] turned out to be 1.4. Also, in the data set on isolated rabbit hearts, the “Vasodilator Activity Rabbit, relative to PGE1 taken as 1” value is less than 0.1.

These data come from patent US4294849A, “Prostaglandin analogues” (Warner-Lambert Company, priority 1979, dated 1981).
